Experimental data reported in patent US20250243171A1, “QUINAZOLINE COMPOUNDS FOR TREATMENT OF DISEASE” (Arthrosi Therapeutics, Inc., priority 2021, published 2025).

Key:
Assay in all cases: EC50 assay: Ba/F3 stable cell proliferation (CCK-8, 72 h)
Assay type in all cases: cell-based
Ba/F3 stable cells [1] = biological target: T1, Ba/F3 stable cells (Homo sapiens, UniProt P00533, T790M/L858R, cells depend on it); details: Ba/F3-EGFR L858R-T790M cells
T1 construct: EC50 Ba/F3-EGFR L858R-T790M; other: Ba/F3-EGFR L858R-T790M cells, 72 h, CCK-8
Protocol: (§1) 4,000 Ba/F3 stable cells/90 μL/well were plated onto 96-well cell culture plate (Grenier, Cat.No. 655180) and incubated at 37° C. with a humidified atmosphere of 5% CO2 for 2 h. Then the cells were treated with 10 μL compounds at serial titration. The final DMSO concentration is 0.1%. The cells treated with 0.1% DMSO (Vetec, Cat.No.V900090) as a positive control (Max), and medium with 0.1% DMSO was as a negative control (Min). Incubated the cells at 37° C. for 72 h. 10 μL the cell proliferation reagent CCK-8 (Dojindo, Cat.No. CK04 1000T) was added into each well and incubated the plate at 37° C. for 4 hours, the GD value was measured by SPECTRAmax plus (Molecular Devices) at 450 nm. Data processing with Graphpad 7.0.

Ba/F3 stable cells [2] = biological target: T2, Ba/F3 stable cells (Homo sapiens, UniProt P04626, DUP772-775, cells depend on it); details: Ba/F3-HER2 A775-G776insYVMA cells
T2 construct: EC50 Ba/F3-HER2 A775-G776insYVMA; other: Ba/F3-HER2 A775-G776insYVMA cells, 72 h, CCK-8
Protocol: as §1

Ba/F3 stable cells [3] = biological target: T3, Ba/F3 stable cells (Homo sapiens, UniProt P00533, INS763FQEA, cells depend on it); details: Ba/F3-EGFR A763-Y764insFQEA cells
T3 construct: EC50 Ba/F3-EGFR A763-Y764insFQEA; other: Ba/F3-EGFR A763-Y764insFQEA cells, 72 h, CCK-8
Protocol: as §1

Ba/F3 stable cells [4] = biological target: T4, Ba/F3 stable cells (Homo sapiens, UniProt P00533, DUP771-773, cells depend on it); details: Ba/F3-EGFR H773-V774insNPH cells
T4 construct: EC50 Ba/F3-EGFR H773-V774insNPH; other: Ba/F3-EGFR H773-V774insNPH cells, 72 h, CCK-8
Protocol: as §1

Ba/F3 stable cells [5] = biological target: T5, Ba/F3 stable cells (Homo sapiens, UniProt P00533, DUP767-769, cells depend on it); details: Ba/F3-EGFR V769-D770insASV cells
T5 construct: EC50 Ba/F3-EGFR V769-D770insASV; other: Ba/F3-EGFR V769-D770insASV cells, 72 h, CCK-8
Protocol: as §1

Ba/F3 stable cells [6] = biological target: T6, Ba/F3 stable cells (Homo sapiens, UniProt P00533, DUP768-770, cells depend on it); details: Ba/F3-EGFR D770-N771insSVD cells
T6 construct: EC50 Ba/F3-EGFR D770-N771insSVD; other: Ba/F3-EGFR D770-N771insSVD cells, 72 h, CCK-8
Protocol: as §1

T1 sequence (P00533 whole entry T790M/L858R): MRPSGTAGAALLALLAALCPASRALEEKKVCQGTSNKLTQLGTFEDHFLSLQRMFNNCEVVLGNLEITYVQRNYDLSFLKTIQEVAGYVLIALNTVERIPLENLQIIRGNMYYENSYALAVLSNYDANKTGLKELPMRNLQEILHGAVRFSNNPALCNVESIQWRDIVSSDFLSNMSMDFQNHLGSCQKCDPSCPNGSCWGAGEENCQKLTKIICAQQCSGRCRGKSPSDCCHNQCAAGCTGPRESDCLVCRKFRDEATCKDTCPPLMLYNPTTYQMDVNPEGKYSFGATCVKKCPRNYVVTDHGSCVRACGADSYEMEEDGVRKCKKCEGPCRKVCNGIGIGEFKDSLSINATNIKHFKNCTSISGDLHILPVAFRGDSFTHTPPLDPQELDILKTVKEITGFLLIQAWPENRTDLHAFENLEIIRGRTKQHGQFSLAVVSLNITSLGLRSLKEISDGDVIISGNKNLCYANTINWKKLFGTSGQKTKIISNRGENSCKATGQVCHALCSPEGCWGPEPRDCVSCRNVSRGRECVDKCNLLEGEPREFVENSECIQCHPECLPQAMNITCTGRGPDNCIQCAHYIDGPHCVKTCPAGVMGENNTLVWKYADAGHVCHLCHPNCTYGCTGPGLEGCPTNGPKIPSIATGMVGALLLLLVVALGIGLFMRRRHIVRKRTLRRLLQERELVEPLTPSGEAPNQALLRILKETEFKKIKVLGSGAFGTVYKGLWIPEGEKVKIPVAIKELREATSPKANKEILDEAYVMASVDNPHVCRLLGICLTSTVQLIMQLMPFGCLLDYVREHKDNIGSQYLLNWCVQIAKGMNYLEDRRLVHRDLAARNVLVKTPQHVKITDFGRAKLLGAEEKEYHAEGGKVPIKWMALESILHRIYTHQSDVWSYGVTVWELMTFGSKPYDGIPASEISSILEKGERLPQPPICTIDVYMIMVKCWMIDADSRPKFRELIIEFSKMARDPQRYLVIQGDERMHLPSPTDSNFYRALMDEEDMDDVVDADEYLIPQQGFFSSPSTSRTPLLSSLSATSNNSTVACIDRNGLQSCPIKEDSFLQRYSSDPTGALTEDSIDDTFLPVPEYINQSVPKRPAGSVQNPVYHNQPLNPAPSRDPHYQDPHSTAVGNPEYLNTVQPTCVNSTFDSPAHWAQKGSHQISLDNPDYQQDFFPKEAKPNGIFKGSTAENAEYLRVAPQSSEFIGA
T3 sequence (P00533 with tags, fused parts or gaps INS763FQEA): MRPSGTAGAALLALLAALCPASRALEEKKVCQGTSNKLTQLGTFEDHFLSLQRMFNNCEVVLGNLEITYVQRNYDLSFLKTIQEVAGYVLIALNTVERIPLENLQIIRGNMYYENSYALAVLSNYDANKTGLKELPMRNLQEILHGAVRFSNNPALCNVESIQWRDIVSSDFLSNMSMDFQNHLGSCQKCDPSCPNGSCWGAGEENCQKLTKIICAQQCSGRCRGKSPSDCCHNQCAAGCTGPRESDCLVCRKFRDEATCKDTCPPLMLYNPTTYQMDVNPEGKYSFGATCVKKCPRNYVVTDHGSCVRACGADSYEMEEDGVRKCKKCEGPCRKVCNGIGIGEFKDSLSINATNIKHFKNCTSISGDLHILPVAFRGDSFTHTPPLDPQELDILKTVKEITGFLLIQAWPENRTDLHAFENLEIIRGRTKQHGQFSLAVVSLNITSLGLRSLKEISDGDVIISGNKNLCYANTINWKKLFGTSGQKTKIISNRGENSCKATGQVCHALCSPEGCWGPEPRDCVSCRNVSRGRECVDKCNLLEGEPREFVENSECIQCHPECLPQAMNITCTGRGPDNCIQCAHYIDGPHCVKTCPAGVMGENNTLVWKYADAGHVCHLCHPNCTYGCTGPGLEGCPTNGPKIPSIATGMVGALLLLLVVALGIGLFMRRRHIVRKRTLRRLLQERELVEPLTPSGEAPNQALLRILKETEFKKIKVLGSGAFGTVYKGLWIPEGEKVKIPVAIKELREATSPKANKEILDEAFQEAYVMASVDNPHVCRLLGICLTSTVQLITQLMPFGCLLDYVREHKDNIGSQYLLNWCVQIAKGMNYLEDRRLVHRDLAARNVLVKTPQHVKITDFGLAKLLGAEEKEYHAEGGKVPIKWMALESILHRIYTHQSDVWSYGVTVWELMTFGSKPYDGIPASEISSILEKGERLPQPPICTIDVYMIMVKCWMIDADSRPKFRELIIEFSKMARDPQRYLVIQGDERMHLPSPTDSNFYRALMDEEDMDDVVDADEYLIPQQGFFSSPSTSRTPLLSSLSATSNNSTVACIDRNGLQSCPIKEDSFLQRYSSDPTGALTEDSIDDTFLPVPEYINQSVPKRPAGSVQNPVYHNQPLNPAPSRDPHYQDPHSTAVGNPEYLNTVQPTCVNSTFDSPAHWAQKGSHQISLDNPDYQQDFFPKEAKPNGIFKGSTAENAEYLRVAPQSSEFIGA
T2 sequence (P04626 with tags, fused parts or gaps DUP772-775): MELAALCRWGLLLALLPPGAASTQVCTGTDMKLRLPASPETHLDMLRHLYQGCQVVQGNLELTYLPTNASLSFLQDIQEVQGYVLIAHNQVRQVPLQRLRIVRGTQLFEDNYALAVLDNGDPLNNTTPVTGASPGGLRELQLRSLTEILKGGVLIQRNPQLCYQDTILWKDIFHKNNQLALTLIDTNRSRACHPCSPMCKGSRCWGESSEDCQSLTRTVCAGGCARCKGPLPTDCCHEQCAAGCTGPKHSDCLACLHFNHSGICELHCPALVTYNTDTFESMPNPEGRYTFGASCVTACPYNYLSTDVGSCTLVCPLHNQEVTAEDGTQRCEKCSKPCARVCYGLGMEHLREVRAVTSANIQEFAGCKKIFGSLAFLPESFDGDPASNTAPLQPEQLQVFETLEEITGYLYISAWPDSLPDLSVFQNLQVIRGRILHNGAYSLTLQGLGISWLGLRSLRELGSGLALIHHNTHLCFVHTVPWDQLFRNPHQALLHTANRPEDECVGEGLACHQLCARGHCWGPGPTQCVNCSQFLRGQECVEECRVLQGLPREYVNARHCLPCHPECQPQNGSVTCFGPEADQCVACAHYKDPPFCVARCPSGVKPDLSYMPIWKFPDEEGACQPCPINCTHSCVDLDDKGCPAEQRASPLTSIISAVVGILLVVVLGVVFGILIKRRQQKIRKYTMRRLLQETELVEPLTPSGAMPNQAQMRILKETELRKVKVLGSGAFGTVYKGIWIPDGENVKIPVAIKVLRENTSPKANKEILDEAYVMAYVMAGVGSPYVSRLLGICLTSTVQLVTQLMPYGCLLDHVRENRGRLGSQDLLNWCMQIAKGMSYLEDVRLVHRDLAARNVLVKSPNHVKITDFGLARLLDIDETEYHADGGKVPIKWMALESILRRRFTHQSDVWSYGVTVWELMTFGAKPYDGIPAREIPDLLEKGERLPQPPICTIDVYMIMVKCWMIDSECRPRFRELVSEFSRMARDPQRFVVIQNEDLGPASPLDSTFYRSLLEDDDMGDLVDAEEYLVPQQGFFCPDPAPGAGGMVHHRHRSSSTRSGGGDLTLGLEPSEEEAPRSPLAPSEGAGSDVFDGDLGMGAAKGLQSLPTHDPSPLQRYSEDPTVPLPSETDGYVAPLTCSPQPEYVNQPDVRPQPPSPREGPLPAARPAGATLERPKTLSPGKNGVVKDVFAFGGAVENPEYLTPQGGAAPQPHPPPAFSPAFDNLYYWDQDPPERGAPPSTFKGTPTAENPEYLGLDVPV
T4 sequence (P00533 with tags, fused parts or gaps DUP771-773): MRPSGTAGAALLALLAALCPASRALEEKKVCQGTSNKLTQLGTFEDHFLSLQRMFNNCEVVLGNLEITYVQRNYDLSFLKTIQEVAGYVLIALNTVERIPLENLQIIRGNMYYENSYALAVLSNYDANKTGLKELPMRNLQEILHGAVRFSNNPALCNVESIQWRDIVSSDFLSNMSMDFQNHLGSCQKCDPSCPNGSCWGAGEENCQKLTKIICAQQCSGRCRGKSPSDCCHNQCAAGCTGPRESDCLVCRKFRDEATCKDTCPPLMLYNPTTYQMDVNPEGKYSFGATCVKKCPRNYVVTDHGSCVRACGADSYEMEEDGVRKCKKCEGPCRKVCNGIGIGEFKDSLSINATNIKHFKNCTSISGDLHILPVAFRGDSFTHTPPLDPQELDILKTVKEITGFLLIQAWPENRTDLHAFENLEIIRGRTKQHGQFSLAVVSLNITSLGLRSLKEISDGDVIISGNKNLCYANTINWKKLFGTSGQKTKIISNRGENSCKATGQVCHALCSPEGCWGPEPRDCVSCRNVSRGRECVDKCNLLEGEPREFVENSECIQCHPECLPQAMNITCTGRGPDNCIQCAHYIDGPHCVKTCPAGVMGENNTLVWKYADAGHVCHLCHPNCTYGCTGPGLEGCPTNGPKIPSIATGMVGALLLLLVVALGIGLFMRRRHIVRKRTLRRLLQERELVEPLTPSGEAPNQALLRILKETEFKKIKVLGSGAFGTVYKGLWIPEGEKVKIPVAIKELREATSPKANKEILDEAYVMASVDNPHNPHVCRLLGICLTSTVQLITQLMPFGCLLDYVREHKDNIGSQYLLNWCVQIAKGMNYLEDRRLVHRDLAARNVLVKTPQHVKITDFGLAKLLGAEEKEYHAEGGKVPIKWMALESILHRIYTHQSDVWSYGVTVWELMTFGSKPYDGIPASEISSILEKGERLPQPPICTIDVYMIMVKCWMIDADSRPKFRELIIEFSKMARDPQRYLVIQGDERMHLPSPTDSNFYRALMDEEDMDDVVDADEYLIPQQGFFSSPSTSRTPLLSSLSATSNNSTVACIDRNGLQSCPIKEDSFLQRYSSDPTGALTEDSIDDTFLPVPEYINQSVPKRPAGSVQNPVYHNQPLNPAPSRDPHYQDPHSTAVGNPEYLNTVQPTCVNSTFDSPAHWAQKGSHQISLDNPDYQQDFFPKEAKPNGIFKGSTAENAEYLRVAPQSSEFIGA

EC50 (Ba/F3 stable cells [1]) [nM]	EC50 (Ba/F3 stable cells [2]) [nM]	EC50 (Ba/F3 stable cells [3]) [nM]	EC50 (Ba/F3 stable cells [4]) [nM]	EC50 (Ba/F3 stable cells [5]) [nM]	EC50 (Ba/F3 stable cells [6]) [nM]	Compound
200 to 1000	≤ 200	≤ 200	≤ 200	≤ 200	200 to 1000	C=CC(=O)N1CC(c2cc3c(Nc4cccc5ccccc45)ncnc3cc2OC)C1 [Compound 4, 1-(3-(7-methoxy-4-(naphthalen-1-ylamino)quinazolin-6-yl)azetidin-1-yl)prop-2-en-1-one]
200 to 1000	200 to 1000	≤ 200	200 to 1000	≤ 200	200 to 1000	C=CC(=O)N1CC(c2cc3c(Nc4ccc5ccccc5c4)ncnc3cc2OC)C1 [Compound 5, 1-(3-(7-methoxy-4-(naphthalen-2-ylamino)quinazolin-6-yl)azetidin-1-yl)prop-2-en-1-one]
–	–	200 to 1000	–	–	–	C=CC(=O)N1CC(c2cc3c(Nc4ccc(Cl)c(Cl)c4F)ncnc3cc2O[C@H]2CCOC2)C1 [Compound 24, (S)-1-(3-(4-((3,4-dichloro-2-fluorophenyl)amino)-7-((tetrahydrofuran-3-yl)oxy)quinazolin-6-yl)azetidin-1-yl)prop-2-en-1-one]
–	≤ 200	–	–	–	–	C=CC(=O)N1CCC(Oc2cc3c(Nc4ccc(Cl)c(Cl)c4F)ncnc3cc2OC)CC1 [Compound 133, 1-(4-((4-((3,4-dichloro-2-fluorophenyl)amino)-7-methoxyquinazolin-6-yl)oxy)piperidin-1-yl)prop-2-en-1-one]

Continued, compound first:

Compound	EC50 (Ba/F3 stable cells [1]) [nM]	EC50 (Ba/F3 stable cells [2]) [nM]	EC50 (Ba/F3 stable cells [3]) [nM]	EC50 (Ba/F3 stable cells [4]) [nM]	EC50 (Ba/F3 stable cells [5]) [nM]	EC50 (Ba/F3 stable cells [6]) [nM]
C=CC(=O)N1CC(c2cc3c(Nc4ccc(Cl)c(Cl)c4F)ncnc3cc2OC)C1 [Compound 1, 1-(3-(4-((3,4-dichloro-2-fluorophenyl)amino)-7-methoxyquinazolin-6-yl)azetidin-1-yl)prop-2-en-1-one]	≤ 200	≤ 200	≤ 200	≤ 200	≤ 200	≤ 200
C=CC(=O)N1CC(c2cc3c(Nc4ccc(OCc5ccccc5)c(Cl)c4F)ncnc3cc2OC)C1 [Compound 2, 1-(3-(4-((4-(benzyloxy)-3-chloro-2-fluorophenyl)amino)-7-methoxyquinazolin-6-yl)azetidin-1-yl)prop-2-en-1-one]	> 1000	> 1000	> 1000	> 1000	> 1000	> 1000
C=CC(=O)N1CCC(c2cc3c(Nc4ccc(Cl)c(Cl)c4F)ncnc3cc2OC)C1 (centres unmarked) [Compound 3, 1-(3-(4-((3,4-dichloro-2-fluorophenyl)amino)-7-methoxyquinazolin-6-yl)pyrrolidin-1-yl)prop-2-en-1-one]	200 to 1000	≤ 200	≤ 200	≤ 200	≤ 200	≤ 200
C=CC(=O)N1CC(c2cc3c(Nc4ccc(F)c(Cl)c4)ncnc3cc2OC)C1 [Compound 6, 1-(3-(4-((3-chloro-4-fluorophenyl)amino)-7-methoxyquinazolin-6-yl)azetidin-1-yl)prop-2-en-1-one]	200 to 1000	≤ 200	≤ 200	≤ 200	≤ 200	200 to 1000
C=CC(=O)N1CC(c2cc3c(Nc4ccc(Cl)c5ccccc45)ncnc3cc2OC)C1 [Compound 7, 1-(3-(4-((4-chloronaphthalen-1-yl)amino)-7-methoxyquinazolin-6-yl)azetidin-1-yl)prop-2-en-1-one]	≤ 200	> 1000	≤ 200	200 to 1000	200 to 1000	> 1000
C=CC(=O)N1CC(c2ccc3ncnc(Nc4ccc(Cl)c(Cl)c4F)c3c2)C1 [Compound 8, 1-(3-(4-((3,4-dichloro-2-fluorophenyl)amino)quinazolin-6-yl)azetidin-1-yl)prop-2-en-1-one]	> 1000	200 to 1000	≤ 200	200 to 1000	200 to 1000	200 to 1000
